Results from PubChem BioAssay AID540258 (Broad Institute, 2011).
Calls of active or inactive are those of the source.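 The calls were made as follows: active = fitted curve reaching 40% activation at or below the top valid dose tested; inconclusive = flat curve at 30 to 70% activation, or poor fit; inactive = the rest.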

Each compound was assayed on SK-MEL-5 TRPM1 promoter luciferase reporter, 24 h (assay: activation of TRPM1 promoter luciferase in melanoma cells – SK-MEL-5 cells, cherry-pick samples, dose response (AID 540258);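 also: potency for activators that raise TRPM1 promoter luciferase signal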).

Row | Structure (SMILES) | AC40
1 | O=C(NC1CC1)c1sc2cc(Cl)ccc2c1Cl | 4.59 µM
2 | COc1ccc(-c2nnc(SCc3ccccc3)n2N)cc1 | 5.97 µM
3 | Cc1ccc2cc(NC(=O)c3ccccc3C)ccc2n1 | 1.69 µM
4 | COc1ccc(-c2ccc3oc(-c4ccsc4)cc(=O)c3c2)cn1 | 1.79 µM
5 | CC1CCCC(C)N1C(=O)c1cc(-c2ccc3c(c2)OCO3)on1 (stereo unspecified) | 1.25 µM
6 | Clc1ccc(-c2nnc(CCc3ccccc3)o2)c(Cl)c1 | 2.55 µM
7 | CCSc1nnc(NC(=O)NC2CCCCC2)s1 | > 35 µM (inactive)
8 | Cc1ccc(/C=N/Nc2ccc(Cl)nn2)cc1 | 1.93 µM
9 | O=C(Nc1cccc(F)c1)NC1CCCCCCC1 | 6.52 µM
10 | O=C(NCCc1ccc(O)cc1)c1ccc(Cl)cc1 | 2.89 µM
11 | Cc1nnc(NC(=O)c2ccc(N3CCCC3=O)cc2)s1 | > 35 µM (inactive)
12 | CCCN(Cc1ccc(C)cc1)C(=O)c1ccc(CNS(=O)(=O)c2ccc(C(C)=O)cc2)cc1 | > 35 µM (inactive)
13 | C/C(=N/OCc1ccc(Br)cc1)c1ccccn1 | 0.336 µM
14 | COc1ccc2cc(C(=O)NCCc3ccccc3)[nH]c2c1 | 11.6 µM
15 | Cc1cc(CN(C)C(=O)c2ccc3nc(Cc4ccccc4F)oc3c2)on1 | 14.1 µM
16 | CN(CCC#N)C(=O)c1cc2c(s1)-c1ccccc1SC2 | 3.23 µM
17 | CC(=O)c1sc(N/N=C/c2cccc(O)c2)nc1C | 2.67 µM
18 | O=C(Nc1ccccn1)c1ccccc1 | 14.8 µM
19 | Cc1cc(NC(=O)Nc2ccc3c(ccn3C)c2)sn1 | 7.89 µM
20 | Cc1cccc(-n2ncc3c(N4CC(C)CC(C)C4)ncnc32)c1 (stereo unspecified) | 0.749 µM
21 | O=C(Cn1c(/C=C/c2ccccc2)nc2ccccc21)Nc1ccc(F)cc1 | 6.45 µM
22 | C/C(=C\C(=O)c1cccnc1)Nc1ccc(C)c(C)c1 | 6.87 µM

Row | Structure (SMILES) | AC40
23 | Nc1ccccc1C#Cc1ccccc1 | 0.777 µM
24 | Cc1nc2c3cnn(-c4ccc(C)c(C)c4)c3ncn2n1 | 0.921 µM
25 | COc1ccccc1N1CCN(/N=C/c2cccc(Cl)c2)CC1 | 1.45 µM
26 | Cc1ccsc1/C=N/NC(=O)Nc1ccccc1 | 1.07 µM
27 | O=C(O)c1ccc(/C=C/c2ccc3cccc(O)c3n2)cc1 | 0.876 µM
28 | O=C(Nc1cccnc1)c1cc(-c2ccc(Cl)cc2)on1 | 15.3 µM
29 | Cc1ccc(-n2nc3ccc(NC(=O)C(C)C)cc3n2)cc1 | 0.555 µM
30 | Nc1nc(-c2cc(-c3ccccc3)no2)cs1 | 0.331 µM
31 | COc1cc2sc3cc(NCC[C@@H]4CCCN4C)ccc3c(=O)c2cc1OC | 5.18 µM
32 | CCc1cccc(NC(=O)c2sc3nc4n(c(=O)c3c2C)CCC4)c1 | 4.55 µM
33 | COc1ccc(-c2nn(-c3ccccc3)cc2C#N)cc1 | 3.24 µM
34 | Cc1ccc(C2=NN(S(C)(=O)=O)C(c3cccs3)C2)cc1 (stereo unspecified) | 2.09 µM
35 | COc1ccc(C(=O)Nc2ccc3c4c(cccc24)CC3)cc1 | 13.3 µM
36 | CCc1ccc(NC(=O)c2ccc3nc(N)sc3c2)cc1 | 5.39 µM
37 | COc1ccc(COc2ccc3ccc(=O)oc3c2)cc1 | 1.21 µM
38 | COc1ccc(NC(=O)CCCn2c(=O)oc3ccccc32)cc1Cl | 3.94 µM
39 | COc1ccc(-c2cn3nc(C)c(C)nc3n2)cc1OC | 5.89 µM
40 | CC(C)Nc1cc(C(C)(C)C)nc2c(-c3ccccc3)cnn12 | 8.53 µM
41 | CCC(C)c1ccc(NC(=O)Nc2cccnc2)cc1 (stereo unspecified) | 2.21 µM
42 | Cc1cc(C(=O)Cn2nc(C(=O)O)c3ccccc3c2=O)c(C)n1CC(F)(F)F | 9.43 µM
43 | c1ccn(-c2ccc(-c3ccn[nH]3)cc2)c1 | 2.31 µM
44 | c1ccc2c(c1)NC1(CCCC1)n1c-2nc2ccccc21 | 11.3 µM

Row | Structure (SMILES) | AC40
45 | O=S(=O)(Cc1cc(-c2ccccc2Cl)no1)c1ccccc1 | 9.76 µM
46 | Cc1ccc(S(=O)(=O)Nc2cccc(-c3ccc(N4CCCCCC4)nn3)c2)cc1 | 4.9 µM
47 | NC(=O)c1cnn(-c2cc(Oc3ccccc3)ncn2)c1N | 2.88 µM
48 | CCn1c(C(=O)NC2CCC(C)CC2)cc2sccc21 (stereo unspecified) | 8.36 µM
49 | COc1ccc(-c2cc(C(=O)Nc3ccccc3F)on2)cc1 | 2.53 µM
50 | CC(C)c1ccc(/C=N/NC(=O)C2CCCC2)cc1 | 2.44 µM
51 | N#Cc1ccsc1NC(=O)CCc1ccccc1 | 9.77 µM
52 | O=C(Nc1ccc2c(c1)CCC2)c1c(F)cccc1Cl | 1.84 µM
53 | Oc1[nH]c2ccccc2c1C=Nc1ccccc1 | 5.55 µM
54 | CC1(C)CC(=O)c2c(O)cc(OCc3ccc(Br)cc3)cc2O1 | 1.33 µM
55 | CCc1ccc(O)c(-c2cc(C(=O)Nc3cccnc3)[nH]n2)c1 | 2.44 µM
56 | C=CCNc1nc(-c2ccc(Cl)cc2)cs1 | 0.639 µM
57 | c1ccc(CSCc2nc3ccccc3[nH]2)cc1 | 6.65 µM
58 | CC(C)(C)c1ccc(-c2noc(-c3ccno3)n2)cc1 | 0.472 µM
59 | Cn1cccc1C(=O)N/N=C/c1c(Cl)cccc1Cl | 1.47 µM
60 | COc1ccc2cc(-c3nc4ccccc4n3C)c(=O)oc2c1 | 1.92 µM
61 | CN(/N=C/c1ccc2c(c1)OCO2)c1ccccc1 | 1.34 µM
62 | O=C(O)c1ccccc1N/N=C/c1cc(Br)cc(Br)c1O | 4.58 µM
63 | Cc1csc2nc(CSc3nc4ccccc4o3)c(Br)n12 | 1.35 µM
64 | Cc1ccc(OCc2cc(C(=O)N3CC4C[C@@H]5CC3C[C@H](C4)C5)no2)cc1C | 2.61 µM
65 | CC(=O)c1ccc(N2Cc3ccccc3C2=NC(=O)c2cccs2)cc1 | 24.6 µM
66 | CC(C)Cc1cc(C(=O)Nc2ccc(Br)cc2)no1 | 1.8 µM

Row | Structure (SMILES) | AC40
67 | COc1ccc(/C(N)=N/OC(=O)c2cccs2)cc1OC | 6.41 µM
68 | c1ccc(-c2nc(-c3nccc4ccccc34)oc2-c2ccccc2)cc1 | 3.61 µM
69 | CC1(C)CC(/C=C/c2ccccc2)=Nc2ccccc2N1 | 20.9 µM
70 | O=C(N/C=C/c1ccccc1)c1ccccc1 | 0.551 µM
71 | CC(C)(C)c1ccc(-c2cc(C(=O)NNC(=O)Nc3ccccc3)c3ccccc3n2)cc1 | 3.33 µM
72 | COc1cc(C=O)ccc1OCc1cccc(Br)c1 | 5.93 µM
73 | O=C(Cc1ccccn1)c1ccc(Cl)cc1 | 1.98 µM
74 | c1ccc(-c2cnnc(N3CCCCC3)n2)cc1 | 0.992 µM
75 | COc1ccc2c(c1)oc(=O)c1cc(OC)ccc12 | 3.88 µM
76 | Cn1c(C(=O)NCCc2c[nH]c3ccccc23)cc2sccc21 | 3.4 µM
77 | Cc1cc2ncc(-c3ccc(Cl)cc3)c(N)n2n1 | > 35 µM (inactive)
78 | Cc1nc(N2CCN(S(=O)(=O)c3ccccc3)CC2)c2cc(-c3ccccc3)sc2n1 | 22.9 µM
79 | Nc1ccc2oc(-c3cccs3)nc2c1 | 4.75 µM
80 | COc1cc(/C=N/O)ccc1OCc1ccccc1Cl | 0.744 µM
81 | Cc1nc(SCc2ccccc2)nc2c1CCC2 | 2.58 µM
82 | COc1ccc(NC(=O)n2ncc3cc(Cl)ccc32)cc1OC | 5.31 µM
83 | C=CCn1cnc2c(nnn2-c2ccc(C)c(C)c2)c1=O | 11.9 µM
84 | Cc1ccc(CNc2ccc3c(c2)ncn3C(C)C)cc1 | 2.63 µM
85 | Nc1nonc1-n1nnc(C(=O)N/N=C/c2ccc(OCc3ccccc3F)cc2)c1CN1CCCCC1 | 17.1 µM
86 | Nc1ccc2cc3ccccc3cc2c1 | 2.88 µM
87 | c1ccc(-c2nc3ccccc3[nH]2)cc1 | 1.81 µM
88 | CC(Cc1ccccc1)/[N+]([O-])=C\c1ccc(C(F)(F)F)cc1 (stereo unspecified) | 8.22 µM

Row | Structure (SMILES) | AC40
89 | O=C(NCC1CC1)Nc1ccc(Cl)cc1 | 12.9 µM
90 | COc1ccc2ccccc2c1/C=N/Nc1cccc(C(=O)O)c1 | 13.1 µM
91 | CC(=O)c1cccc(NC(=O)c2cc3nc(C)cc(C)n3n2)c1 | 2.7 µM
92 | Cc1nc(-c2noc(-c3ccccc3Cl)n2)c(C(F)(F)F)o1 | 11.9 µM
93 | CCCCNC(=O)c1cc2ccccc2s1 | 31 µM
94 | CCCCc1ccc(Nc2ncnc3nc[nH]c23)cc1 | 3.37 µM
95 | Cn1c(-c2ncc(F)cc2F)cc2onc(-c3c(F)cccc3Cl)c2c1=O | > 35 µM (inactive)
96 | Cc1cc(NC(=O)c2ccc(Cl)cc2)no1 | 2.63 µM
97 | c1ccc(CCn2nnc3ccccc32)cc1 | 0.867 µM
98 | N/C(=N\OC(=O)C1CCCCC1)c1cccc(Br)c1 | 13.5 µM
99 | Cc1nn(CC(C)C)c(Cl)c1C(=O)NC1CCC(C)CC1 (stereo unspecified) | 2.63 µM
100 | CC(=O)c1cnc2c(-c3cccc(Br)c3)cnn2c1C | 13.2 µM
101 | O=C(c1noc2c1CCCC2)N1CCc2ccccc2C1 | 5.97 µM
102 | Cc1ccc(N(O)C(=O)NCCCCNC(=O)N(O)c2ccc(C)cc2)cc1 | 15.5 µM
103 | Cc1nc(N)sc1N=Nc1ccc(F)cc1 | 6.62 µM
104 | O=C(N=Nc1c(O)n(Cc2ccccc2)c2ccccc12)c1ccc(O)cc1 | 0.86 µM
105 | Nc1ccccc1N=Nc1ccccc1N | 27 µM
106 | O=C(Nc1ccc(NC(=O)c2ccccc2F)cc1)c1cccs1 | 4.26 µM
107 | N/C(=N\OC(=O)c1ccc2c(c1)OCO2)c1ccc(Cl)cc1 | 5.31 µM
108 | COc1cccc2[nH]c(=O)c(-c3ccccc3)cc12 | 1.72 µM
109 | COc1ccc(C)c2sc(=NC(=O)c3ccc(C(C)=O)cc3)n(C)c12 | 0.119 µM
110 | CCc1ccc(-c2cn3nc(-c4ccccc4)cnc3n2)cc1 | > 35 µM (inactive)

Row | Structure (SMILES) | AC40
111 | COc1cc2c(C)nc3c(cnn3-c3ccccc3)c2cc1OC | 2.87 µM
112 | CC(C)(C)c1ccc(C(=O)Nc2ccc(F)cc2)s1 | 0.374 µM
113 | Clc1cnc(N/N=C/c2cccs2)c(Cl)c1 | 3.62 µM
114 | Brc1ccc(OCc2cn3ccccc3n2)cc1 | 0.592 µM
115 | O=C(Nc1ccc(Cl)c(Cl)c1)OCc1cccnc1 | 7.44 µM
116 | CCn1c(C)nc2cc(C(=O)N/N=C(\C)c3ccccc3O)ccc21 | 3.48 µM
117 | COC(=O)c1ccc(N2CCN(c3ccccc3)CC2)nc1 | 3.85 µM
118 | Cc1ccc2c(c1N)C(=O)c1ccccc1C2=O | 3.96 µM
119 | Nc1nc(COc2ccc3ccccc3c2)cs1 | 4.97 µM
120 | Cc1ccc(CSc2ccc(-c3cccs3)nn2)cc1 | 2.71 µM
121 | CCC(=O)Nc1sc(C(=O)Nc2ccccc2F)c(C)c1C(=O)OC | 0.568 µM
122 | Clc1ccc(-c2ccc(SCc3ccccn3)nn2)cc1 | 2.39 µM
123 | O=C(O)c1ccc(N/N=C/c2cccc(C(F)(F)F)c2)cc1 | 0.488 µM
124 | Cc1ccc(-n2nnc3ccccc3c2=O)cc1C | 2.62 µM
125 | CCCSc1ccc(C(=O)Nc2ccc(F)cc2F)cn1 | 27.2 µM
126 | Cc1[nH]n(-c2cccc(Cl)c2)c(=O)c1C=NCC(C)C | 5.25 µM
127 | O=C(Nc1ccc(Cl)c(Cl)c1)Nc1ccccc1O | 0.982 µM
128 | O=C(Nc1ccc(-c2nc3cccnc3s2)cc1)c1ccc(Cl)nc1 | 2.11 µM
129 | COc1ccccc1Nc1nc(C)cs1 | 22.6 µM
130 | Clc1ccc(-c2cn3c(n2)CCC3)cc1 | > 35 µM (inactive)
131 | CC1CCN(c2oc(-c3ccccc3Cl)nc2C#N)CC1 | 10.9 µM
